Measured values as given in paper PMC10005185, “Structure-guided engineering of a receptor-agonist pair for inducible activation of the ABA adaptive response to drought” (Science Advances, 2023).
Where “and” joins values, the source holds several entries; their conditions need not be identical. Equal entries are not always repeated.

Experiments:
ΔNHAB1 with AtPYL1 = target: T1, ΔNHAB1 with AtPYL1 (Arabidopsis thaliana, UniProt Q8VZS8); test: PP2C inhibition assay, HAB1 with AtPYL1; format: biochemical
T1 construct: His; made in house
Description: (§1) His-tagged receptors and phosphatases were purified using nickel–nitrilotriacetic acid (Ni-NTA) affinity chromatography. Protein integrity was analyzed by SDS–polyacrylamide gel electrophoresis, followed by InstantBlue staining. Phosphatase activity was measured using p-Nitrophenyl Phosphate (pNPP) (25 mM) as substrate, 10 mM MnCl2,1 μM PP2C, and 2 μM of the indicated receptors. Proteins were incubated with the ligands for 10 min at room temperature. pNPP was then added to start the reactions, and the absorbance at 405 nm was monitored for 20 min in a ViktorX5 plate reader. Assays were repeated twice. For dose-response experiments, IC50 values were obtained with GraphPad Prism 9 using a nonlinear regression curve fit. Each ligand concentration was tested in triplicate. Phosphatase activity of ABI1 was measured using RRA(phosphoT)VA peptide as a substrate, as described ([27]).

ΔNHAB1 with AtPYL5 = target: T2, ΔNHAB1 with AtPYL5 (Arabidopsis thaliana, UniProt Q9FLB1); test: PP2C inhibition assay, HAB1 with AtPYL5; format: biochemical
T2 construct: His; made in house
Description: as §1

ΔNHAB1 with AtPYL10 [1] = target: T3, ΔNHAB1 with AtPYL10 (Arabidopsis thaliana, UniProt Q8H1R0); test: PP2C inhibition assay, HAB1 with AtPYL10; format: biochemical
T3 construct: His; made in house
Description: as §1

ΔNHAB1 with AtPYL10 [2] = test: PP2C inhibition assay, HAB1 with AtPYL10; format: biochemical, Arabidopsis thaliana; conditions: more sensitive
Description: as §1

AtHAB1ΔN with CsPYL1 = test: PP2C inhibition assay, HAB1 with CsPYL1; format: biochemical, Citrus sinensis (CsPYL1); Arabidopsis thaliana (HAB1); conditions: fig. S1C; AtPYL5, AtPYL10 and PYL1-like receptors
Description: as §1, with “Proteins were incubated with the ligands for 10 min at room temperature. pNPP was then added to start the reactions, and the absorbance at 405 nm was monitored for 20 min in a ViktorX5 plate reader.” left out

AtHAB1ΔN with CsPYL1^5m [3] = target: AtHAB1ΔN with CsPYL1^5m (Citrus sinensis, UniProt A0A067E666, F137I/T135L/T153I/V112L/V168A); test: PP2C inhibition assay, HAB1 with CsPYL1^5m; format: biochemical, Citrus sinensis (CsPYL1^5m); Arabidopsis thaliana (HAB1); conditions: IC50 for inhibition of HAB1 (ΔNHAB1) in the presence of CsPYL1^5m, pNPP as substrate
Description: as §1, with “Proteins were incubated with the ligands for 10 min at room temperature. pNPP was then added to start the reactions, and the absorbance at 405 nm was monitored for 20 min in a ViktorX5 plate reader.” left out

AtHAB1ΔN with CsPYL1^5m [4] = test: PP2C inhibition assay, HAB1 with CsPYL1^5m; format: biochemical, Citrus sinensis (CsPYL1^5m); Arabidopsis thaliana (HAB1); conditions: lower for the synthetic receptor
Description: as §1, with “Proteins were incubated with the ligands for 10 min at room temperature. pNPP was then added to start the reactions, and the absorbance at 405 nm was monitored for 20 min in a ViktorX5 plate reader.” left out

HAB1 with SlPYL1 = test: PP2C inhibition assay, HAB1 with SlPYL1; format: biochemical, Solanum lycopersicum (SlPYL1); Arabidopsis thaliana (HAB1); conditions: 100 μM SB
Description: as §1

[5] = system: Arabidopsis thaliana seedlings (WT Col-0, overexpressing lines, receptor mutants); test: Seedling establishment assay; format: in vivo
Description: Seedling establishment was scored as the percentage of seeds that developed green expanded cotyledons and the first pair of true leaves at 5 or 7 days. Seedling establishment assays in the presence of ABA receptor agonists were performed in 24-well plates, where approximately 25 to 35 seeds per well were sown. Each well contained a different treatment. The experiment was repeated at least twice.

[6] = system: Arabidopsis thaliana seedlings; test: Root growth assay; format: in vivo; conditions: for reduction of root growth: 50 μM SB
Description: Seedlings were grown on vertically oriented Murashige and Skoog (MS) plates for 4 to 5 days. Afterward, seedlings were transferred to MS supplemented with the indicated concentrations of the different ligands and kept on vertical orientation. Ten days later, the plates were scanned on a flatbed scanner to produce image files suitable for quantitative analysis of root growth using the NIH Image software ImageJ. The experiment was performed in triplicate (n = 13 to 16). Statistical comparisons were performed by either pairwise t tests or one-way ANOVA using GraphPad Prism 9.

[7] = read-out: inhibition of HAB1 phosphatase activity

T3 sequence (Q8H1R0 whole entry, stated change not applied): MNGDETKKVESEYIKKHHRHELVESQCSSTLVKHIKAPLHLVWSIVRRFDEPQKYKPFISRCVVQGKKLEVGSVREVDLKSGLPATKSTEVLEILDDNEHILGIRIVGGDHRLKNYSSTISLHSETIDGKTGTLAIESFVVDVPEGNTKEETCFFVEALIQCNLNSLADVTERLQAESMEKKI
T2 sequence (Q9FLB1 whole entry, stated change not applied): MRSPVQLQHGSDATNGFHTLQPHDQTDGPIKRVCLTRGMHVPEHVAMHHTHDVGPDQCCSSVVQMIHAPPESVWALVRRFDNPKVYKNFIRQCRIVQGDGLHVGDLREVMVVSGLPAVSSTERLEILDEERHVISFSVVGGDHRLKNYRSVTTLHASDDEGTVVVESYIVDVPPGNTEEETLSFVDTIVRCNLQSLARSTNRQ
AtHAB1ΔN with CsPYL1^5m (Citrus sinensis, UniProt A0A067E666, F137I/T135L/T153I/V112L/V168A), sequence (A0A067E666 1-209 V112L/T135L/F137I/T153I/V168A): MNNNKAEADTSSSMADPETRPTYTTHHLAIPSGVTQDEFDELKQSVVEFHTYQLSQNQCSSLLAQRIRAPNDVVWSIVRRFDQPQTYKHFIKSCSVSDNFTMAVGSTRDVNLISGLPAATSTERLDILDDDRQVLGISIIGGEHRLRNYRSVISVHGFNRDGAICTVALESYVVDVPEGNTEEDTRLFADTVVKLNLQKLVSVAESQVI
AtHAB1ΔN with CsPYL1^5m (Citrus sinensis, UniProt A0A067E666, F137I/T135L/T153I/V112L/V168A), sequence (Q9CAJ0 179-511 partner): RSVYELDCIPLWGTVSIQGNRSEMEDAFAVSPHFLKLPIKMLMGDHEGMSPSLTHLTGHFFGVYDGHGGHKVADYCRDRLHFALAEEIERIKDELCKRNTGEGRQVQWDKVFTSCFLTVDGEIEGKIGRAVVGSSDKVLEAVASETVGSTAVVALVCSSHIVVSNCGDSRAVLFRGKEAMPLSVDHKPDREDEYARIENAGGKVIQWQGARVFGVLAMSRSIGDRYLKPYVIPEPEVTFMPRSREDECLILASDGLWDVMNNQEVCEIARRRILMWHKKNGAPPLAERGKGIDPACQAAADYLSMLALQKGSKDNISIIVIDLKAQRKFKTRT
T1 sequence (Q8VZS8 whole entry, stated change not applied): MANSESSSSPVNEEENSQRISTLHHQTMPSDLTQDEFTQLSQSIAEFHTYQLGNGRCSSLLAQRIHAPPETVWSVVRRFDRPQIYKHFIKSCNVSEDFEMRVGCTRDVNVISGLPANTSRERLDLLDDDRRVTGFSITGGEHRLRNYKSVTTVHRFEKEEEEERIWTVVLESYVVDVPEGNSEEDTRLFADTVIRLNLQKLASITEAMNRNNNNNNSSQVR

Cc1cc(=O)n(C)c2ccc(S(=O)(=O)NCc3ccccc3)cc12 [SB, N-benzyl-1,4-dimethyl-2-oxo-1,2-dihydroquinoline-6-sulfonamide]
IC50 (ΔNHAB1 with AtPYL1; Fig. 1B, read-out: IC50 for SB-dependent inhibition of ΔNHAB1 by AtPYL1): 10100 ± 1990 nM | IC50 of SB relative to IC50 of ABA (ΔNHAB1 with AtPYL1; PYL1, higher than ABA): circa 30 fold | IC50 (ΔNHAB1 with AtPYL5; Fig. 1B, read-out: IC50 for SB-dependent inhibition of ΔNHAB1 by AtPYL5): 877 ± 6 nM | IC50 of SB relative to IC50 of ABA (ΔNHAB1 with AtPYL5; PYL5, higher than ABA): circa 30 fold | inhibition at 100 µM (ΔNHAB1 with AtPYL5; [7]): > 75% | IC50 of SB relative to IC50 of ABA (ΔNHAB1 with AtPYL10 [1]; AtPYL10): fourfold higher | IC50 (ΔNHAB1 with AtPYL10 [1]; Fig. 1B, read-out: IC50 for SB-dependent inhibition of ΔNHAB1 by AtPYL10): 506 ± 56 nM | inhibition at 100 µM (ΔNHAB1 with AtPYL10 [1]; [7]): > 75% | sensitivity to SB of PYL10 relative to PYL1 members (ΔNHAB1 with AtPYL10 [2]): 20 fold | inhibition of HAB1 activity by candidate molecules of the in silico screening (AtHAB1ΔN with CsPYL1): able to inhibit HAB1 activity | IC50 (AtHAB1ΔN with CsPYL1^5m [3]): 877 nM and 876 nM | IC50 of SB for CsPYL1^5m relative to WT CsPYL1 (AtHAB1ΔN with CsPYL1^5m [4]): 12 fold | reduction of phosphatase activity (HAB1 with SlPYL1): around 50% | inhibition of seedling establishment ([5]; 35S:CsPYL1^5m lines, 10 μM SB): sensitive | inhibition of seedling establishment ([5]; 35S:CsPYL1 lines, even by 100 μM SB): not affected | dosage required to inhibit seedling establishment relative to ABA ([5]; CsPYL1^5m lines, higher than ABA): 20 fold | inhibition of seedling establishment ([5]; PYL5- and PYL10-overexpressing lines, 50 to 100 μM SB): reduced the seedling establishment | inhibition of seedling establishment ([5]; WT seeds, even at 100 μM): not active | reduction of root growth ([6]; PYL5- and PYL10-overexpressing lines): 40% | reduction of root growth ([6]; WT seedlings): 20% | effect on root growth ([6]; sextuple 112458 mutant): resistant
